A word on the AC50: it is the concentration at which the activity in the assay is half-maximal.

Active and inactive are the calls of the source.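 Rule for the calls: active = parasite count per well reduced by over 3 SD from the mean, with host cell number above 80% of untreated; inactive = the rest.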

These results are taken from PubChem BioAssay AID977614 (Broad Institute, 2014).

In this test the test system is L. donovani amastigotes in THP-1 macrophages, DAPI imaging, 72 h. As to the kind of experiment: antileishmanial activity in infected macrophages – imaging, THP-1 host macrophages, single concentration (AID 977614).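 Note: signal is the parasite per host cell ratio from DAPI stained kinetoplasts and nuclei.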
For the compound `C[C@H](CO)N1C[C@H](C)[C@@H](CN(C)C(=O)c2ccc3ccn(C)c3c2)OCc2cnnn2CCCC1=O`, the AC50 is > 10 µM (inactive).
On to `C[C@@H]1CN([C@@H](C)CO)C(=O)CCCn2cc(nn2)CO[C@H]1CN(C)C(=O)Oc1ccc2ccccc2c1`, for which the AC50 was > 10 µM (inactive).
In the case of `CN(C[C@H]1N[C@@H](CO)[C@@H]1c1ccc(C2=CCCC2)cc1)C(=O)c1cccc(F)c1`, the AC50 was > 10 µM (inactive).
The same measure for `O=C(c1cccc(F)c1)N1C[C@@H]2[C@H](c3ccccc31)[C@H](CO)N2Cc1cocn1`: > 10 µM (inactive).
The same measure for `C/C=C/c1ccc([C@H]2[C@@H](CO)N[C@@H]2CN(Cc2cccnc2)C(=O)C2CC2)cc1`: > 10 µM (inactive).
In the case of `C[C@@H]1CN([C@H](C)CO)C(=O)CCCn2cc(nn2)CO[C@H]1CN(C)C(=O)Nc1cccc2ccccc12`, the AC50 is > 10 µM (inactive).
For `CNC[C@@H]1OCc2cn(nn2)CCCC(=O)N([C@H](C)CO)C[C@@H]1C`, the AC50 is > 10 µM (inactive).
Turning to `O=C(C1CC1)N1C[C@H]2[C@@H](c3ccccc31)[C@@H](CO)N2C(=O)c1ccccc1`, the AC50 is > 10 µM (inactive).
The same measure for `C/C=C/c1ccc([C@H]2[C@H](CO)N[C@H]2CN(CC(C)C)C(=O)c2ccccn2)cc1`: > 10 µM (inactive); for `Cc1noc(C)c1S(=O)(=O)N(C)C[C@H]1OCc2cnnn2CCCC(=O)N([C@H](C)CO)C[C@@H]1C`: > 10 µM (inactive).
On to `CC(=O)NC[C@@H]1[C@@H](c2ccc(-c3cccnc3)cc2)[C@@H](CO)N1C(=O)CC1CC1`, for which the AC50 is > 10 µM (inactive).
As to `CC(=O)NC[C@@H]1[C@@H](c2ccc(C3=CCCC3)cc2)[C@H](CO)N1Cc1cccnc1`, the AC50 is > 10 µM (inactive).
In the case of `CN1[C@@H]2CNc3ccccc3[C@@H]2[C@@H]1CO`, the AC50 is > 10 µM (inactive).
In the case of `C[C@@H]1CN([C@H](C)CO)C(=O)CCCn2nncc2CO[C@H]1CN(C)C(=O)CCC(F)(F)F`, the AC50 is > 10 µM (inactive).
For `O=C(CC1CC1)N1[C@@H](CO)[C@@H]2c3ccccc3N(S(=O)(=O)c3ccccc3F)C[C@@H]21`, the AC50 is > 10 µM (inactive).
In the case of `COc1ccc(CN2[C@H](CO)[C@H]3c4ccccc4NC[C@H]32)cc1`, the AC50 is > 10 µM (inactive).
Consider `COCC(=O)N(C[C@@H]1[C@@H](c2ccccc2)[C@@H](CO)N1C(=O)NC(C)C)C(C)C`, for which the AC50 was > 10 µM (inactive).
Consider `C[C@H](CO)N1C[C@H](C)[C@H](CN(C)S(=O)(=O)c2ccccc2C#N)OCc2cnnn2CCCC1=O`, for which the AC50 is > 10 µM (inactive).
As to `CN1[C@@H]2CN(C(=O)Nc3cc(F)ccc3F)c3ccccc3[C@@H]2[C@@H]1CO`, the AC50 was > 10 µM (inactive).
Regarding `C[C@@H]1CN([C@@H](C)CO)C(=O)CCCn2cc(nn2)CO[C@@H]1CN(C)C(=O)NC1CCCCC1`, the AC50 is > 10 µM (inactive).
Turning to `CC(=O)N1[C@@H](CO)[C@H](c2ccccc2)[C@@H]1CN(C)S(=O)(=O)c1ccccc1`, the AC50 was > 10 µM (inactive).
For the compound `O=C(NC[C@@H]1[C@@H](c2ccccc2)[C@H](CO)N1Cc1ccccn1)C1CCCC1`, the AC50 is > 10 µM (inactive).
`CC(=O)N1[C@H](CO)[C@H](c2ccccc2)[C@H]1CN(C(=O)c1ccccc1F)C(C)C`: the AC50 was > 10 µM (inactive).
For `COc1ccccc1S(=O)(=O)N(C)C[C@H]1OCc2cn(nn2)CCCC(=O)N([C@@H](C)CO)C[C@H]1C`, the AC50 was > 10 µM (inactive).
Take `C[C@H](CO)N1C[C@H](C)[C@H](CN(C)Cc2cccc(C(F)(F)F)c2)OCc2cnnn2CCCC1=O`: the AC50 is > 10 µM (inactive).
Consider `COCC(=O)N1C[C@H]2[C@@H](c3ccccc31)[C@H](CO)N2C(=O)c1ccccc1F`, for which the AC50 is > 10 µM (inactive).
The same measure for `O=C(C1CCCCC1)N1[C@@H](CO)[C@@H]2c3ccccc3N(S(=O)(=O)c3ccccc3)C[C@@H]21`: > 10 µM (inactive); for `C[C@H](CO)N1C[C@H](C)[C@H](CN(C)S(=O)(=O)c2ccc(Oc3ccccc3)nc2)OCc2cnnn2CCCC1=O`: > 10 µM (inactive); for `CN1[C@H](CO)[C@H]2c3ccccc3NC[C@H]21`: > 10 µM (inactive).
For `CCCNC(=O)N1[C@@H](CO)[C@@H]2c3ccccc3N(C(=O)Nc3cccc(Cl)c3)C[C@@H]21`, the AC50 was > 10 µM (inactive).
The same measure for `O=S(=O)(NC[C@H]1[C@H](c2ccccc2)[C@@H](CO)N1CC1CC1)c1ccccc1`: > 10 µM (inactive); for `C[C@H]1CN([C@@H](C)CO)C(=O)CCCn2nncc2CO[C@@H]1CN(C)Cc1cccc2c1OCCCO2`: > 10 µM (inactive).
Take `C[C@@H]1CN([C@H](C)CO)C(=O)CCCn2cc(nn2)CO[C@H]1CN(C)C(=O)CCC(F)(F)F`: the AC50 was > 10 µM (inactive).
The same measure for `COc1ccccc1-c1ccc([C@H]2[C@@H](CO)N[C@@H]2CNC(=O)C2CC2)cc1`: > 10 µM (inactive); for `C/C=C/c1ccc([C@@H]2[C@@H](CN(CC)C(C)=O)N(Cc3cccnc3)[C@H]2CO)cc1`: > 10 µM (inactive); for `CC(C)NC[C@@H]1[C@H](c2ccc(C3=CCCCC3)cc2)[C@H](CO)N1S(C)(=O)=O`: > 10 µM (inactive).
Consider `COCC(=O)N1[C@@H]2CN(C(=O)c3cccnc3)c3ccccc3[C@@H]2[C@@H]1CO`, for which the AC50 is > 10 µM (inactive).
Consider `O=C(C1CCOCC1)N1C[C@H]2[C@@H](c3ccccc31)[C@@H](CO)N2C(=O)Nc1ccccc1F`, for which the AC50 is > 10 µM (inactive).
Take `C/C=C/c1ccc([C@H]2[C@@H](CO)N(C(=O)CC)[C@@H]2CN(C(=O)C2CC2)C(C)C)cc1`: the AC50 is > 10 µM (inactive).
For the compound `Cc1cccc(S(=O)(=O)N2C[C@H]3[C@@H](c4ccccc42)[C@H](CO)N3Cc2ccc3c(c2)OCO3)c1`, the AC50 was > 10 µM (inactive).
In the case of `CC(C)N(C[C@H]1N[C@H](CO)[C@H]1c1ccccc1)S(=O)(=O)c1ccccc1`, the AC50 was > 10 µM (inactive).
Take `COc1ccc(C(=O)N2C[C@@H]3[C@H](c4ccccc42)[C@@H](CO)N3C(=O)NC(C)C)cc1`: the AC50 is > 10 µM (inactive).
As for `CCC(=O)N1[C@H](CO)[C@H](c2ccc(-c3cncnc3)cc2)[C@@H]1CN(C)C(C)=O`, the AC50 was > 10 µM (inactive).
The same measure for `CN(C)CC(=O)N1C[C@@H]2[C@H](c3ccccc31)[C@H](CO)N2C(=O)c1ccccn1`: > 10 µM (inactive); for `C[C@@H]1CN([C@H](C)CO)C(=O)CCCn2nncc2CO[C@@H]1CN(C)C(=O)Nc1ccc2c(c1)OCCO2`: > 10 µM (inactive).
In the case of `C[C@H]1CN([C@@H](C)CO)C(=O)CCCn2nncc2CO[C@H]1CN(C)Cc1cccc(C(F)(F)F)c1`, the AC50 was > 10 µM (inactive).
For `COc1ccccc1S(=O)(=O)N(C)C[C@@H]1OCc2cn(nn2)CCCC(=O)N([C@H](C)CO)C[C@@H]1C`, the AC50 was > 10 µM (inactive).
Turning to `O=C(c1cnccn1)N1C[C@H]2[C@@H](c3ccccc31)[C@@H](CO)N2CC1CCCC1`, the AC50 is > 10 µM (inactive).
The same measure for `CNC[C@@H]1OCc2cnnn2CCCC(=O)N([C@H](C)CO)C[C@H]1C`: > 10 µM (inactive).
Turning to `CCCNC(=O)N(C)C[C@H]1[C@H](c2ccccc2)[C@@H](CO)N1C(=O)c1ccccc1`, the AC50 was > 10 µM (inactive).
Regarding `COc1ccc(CN(C)C[C@H]2OCc3cnnn3CCCC(=O)N([C@@H](C)CO)C[C@@H]2C)cc1`, the AC50 is > 10 µM (inactive).
`O=C(CN1CCOCC1)N1[C@@H]2CNc3ccccc3[C@@H]2[C@@H]1CO`: the AC50 was > 10 µM (inactive).
The same measure for `C[C@@H]1CN([C@@H](C)CO)C(=O)CCCn2nncc2CO[C@H]1CN(C)C(=O)Nc1ccnc(N2CCOCC2)c1`: > 10 µM (inactive); for `COc1ccc(CN(C)C[C@@H]2OCc3cnnn3CCCC(=O)N([C@@H](C)CO)C[C@@H]2C)cc1`: > 10 µM (inactive).
For the compound `OC[C@@H]1[C@@H]2c3ccccc3NC[C@@H]2N1Cc1ccccc1Cl`, the AC50 is > 10 µM (inactive).
Consider `CN1C[C@@H]2[C@H](c3ccccc31)[C@@H](CO)N2Cc1ccccc1Cl`, for which the AC50 is > 10 µM (inactive).
Turning to `O=C(Nc1ccccc1F)N1C[C@@H]2[C@H](c3ccccc31)[C@@H](CO)N2C(=O)Cc1cccnc1`, the AC50 was > 10 µM (inactive).
With `Cc1cccc(S(=O)(=O)N2C[C@@H]3[C@H](c4ccccc42)[C@@H](CO)N3C(=O)c2ccccc2)c1`, the AC50 was > 10 µM (inactive).
Take `C[C@H](CO)N1C[C@H](C)[C@H](CN(C)S(=O)(=O)c2cn(C)cn2)OCc2cnnn2CCCC1=O`: the AC50 is > 10 µM (inactive).
On to `C[C@H](CO)N1C[C@H](C)[C@@H](CN(C)C(=O)Nc2cccc3ccccc23)OCc2cn(nn2)CCCC1=O`, for which the AC50 is > 10 µM (inactive).
As for `C[C@@H]1CN([C@@H](C)CO)C(=O)CCCn2cc(nn2)CO[C@@H]1CN(C)C(=O)Nc1cccc2ccccc12`, the AC50 was > 10 µM (inactive).
With `O=C(Nc1ccc(F)cc1)N1[C@H](CO)[C@@H]2c3ccccc3NC[C@@H]21`, the AC50 was > 10 µM (inactive).
For `O=C(Nc1ccccc1Cl)N1C[C@@H]2[C@H](c3ccccc31)[C@@H](CO)N2C(=O)c1cccnc1`, the AC50 was > 10 µM (inactive).
For the compound `COc1ccccc1S(=O)(=O)N(C)C[C@H]1OCc2cn(nn2)CCCC(=O)N([C@H](C)CO)C[C@H]1C`, the AC50 was > 10 µM (inactive).
As to `C/C=C/c1ccc([C@H]2[C@@H](CO)N[C@@H]2CN(CC)C(=O)CN2CCOCC2)cc1`, the AC50 was > 10 µM (inactive).
Take `O=C(c1ccccc1F)N1C[C@H]2[C@@H](c3ccccc31)[C@@H](CO)N2C(=O)Nc1ccccc1`: the AC50 is > 10 µM (inactive).
Then `CN(C)CC(=O)N1C[C@H]2[C@@H](c3ccccc31)[C@@H](CO)N2C(=O)c1ccccn1`, with > 10 µM (inactive).
For `COc1ccc(NC(=O)N(C)C[C@H]2OCc3cnnn3CCCC(=O)N([C@@H](C)CO)C[C@@H]2C)c(OC)c1`, the AC50 is > 10 µM (inactive).
The same measure for `C[C@@H]1CN([C@@H](C)CO)C(=O)CCCn2nncc2CO[C@H]1CN(C)C(=O)c1ccc(N2CCN(C)CC2)cc1`: > 10 µM (inactive).
